From patent publication US20250136578A1 (Kolm Therapeutics Inc., priority 2023, published 2025)
Where two headings read alike, the source gives them in different places.

Assays:
VCaP cells = experiment: VCaP growth inhibition assay (CTG); format: cell-based; conditions: Homo sapiens, 216 h, 30 pM R1881, 9 days
How it was run: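 Growth was measured by CTG luminescence after a 9-day exposure of VCaP cells to compound (final 10 fM–100 nM, fivefold steps) in the presence of 30 pM final R1881, in phenol red-free DMEM/5% CSS. IC50 values were derived by nonlinear 4-parameter regression of RLU against concentration.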

AR / CBP ternary complex = AR / CBP ternary complex (Homo sapiens, UniProt P10275+Q92793); experiment: Ternary complex formation assay (sandwich ELISA, AR capture, CBP antibody detection) in VCaP cell lysates; format: cell-based
How it was run: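 Sandwich ELISA: plates were coated with anti-AR antibody (AR441) and given lysates of VCaP cells treated 1.5 h with bifunctional compound in charcoal-stripped serum. Co-captured CBP or p300 was probed with rabbit mAbs and HRP secondary. Chemifluorescent signal (ex 570/em 585) was read at 0, 5 and 15 min.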

[1] = treated 1.5 hours, rabbit CBP or p300 antibody detection, average, read-out: Average Ternary Complex

Chain of AR / CBP ternary complex (P10275 whole entry): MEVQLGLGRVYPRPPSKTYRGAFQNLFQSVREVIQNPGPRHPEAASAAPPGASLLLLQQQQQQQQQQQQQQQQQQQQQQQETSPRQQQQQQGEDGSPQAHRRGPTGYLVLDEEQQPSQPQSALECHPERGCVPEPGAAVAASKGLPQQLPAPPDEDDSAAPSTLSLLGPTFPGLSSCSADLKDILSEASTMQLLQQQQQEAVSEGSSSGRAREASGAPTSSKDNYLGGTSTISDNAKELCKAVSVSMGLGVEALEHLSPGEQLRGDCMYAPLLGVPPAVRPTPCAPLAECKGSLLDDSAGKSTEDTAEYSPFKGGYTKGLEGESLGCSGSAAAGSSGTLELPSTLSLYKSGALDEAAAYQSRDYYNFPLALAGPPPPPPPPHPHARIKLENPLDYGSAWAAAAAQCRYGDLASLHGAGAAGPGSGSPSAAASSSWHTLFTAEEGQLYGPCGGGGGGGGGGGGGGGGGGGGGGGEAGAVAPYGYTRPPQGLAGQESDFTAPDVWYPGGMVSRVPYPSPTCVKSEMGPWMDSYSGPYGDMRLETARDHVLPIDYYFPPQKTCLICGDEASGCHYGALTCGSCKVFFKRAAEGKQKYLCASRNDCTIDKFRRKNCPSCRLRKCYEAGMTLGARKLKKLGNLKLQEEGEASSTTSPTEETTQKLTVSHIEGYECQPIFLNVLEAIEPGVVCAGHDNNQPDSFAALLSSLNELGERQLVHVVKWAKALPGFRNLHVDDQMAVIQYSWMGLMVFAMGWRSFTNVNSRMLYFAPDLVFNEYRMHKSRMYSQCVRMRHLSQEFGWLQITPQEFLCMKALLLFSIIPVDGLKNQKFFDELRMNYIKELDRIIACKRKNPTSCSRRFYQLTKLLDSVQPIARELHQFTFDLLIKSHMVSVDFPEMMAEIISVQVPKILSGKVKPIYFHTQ
Chain of AR / CBP ternary complex (Q92793 2-2442): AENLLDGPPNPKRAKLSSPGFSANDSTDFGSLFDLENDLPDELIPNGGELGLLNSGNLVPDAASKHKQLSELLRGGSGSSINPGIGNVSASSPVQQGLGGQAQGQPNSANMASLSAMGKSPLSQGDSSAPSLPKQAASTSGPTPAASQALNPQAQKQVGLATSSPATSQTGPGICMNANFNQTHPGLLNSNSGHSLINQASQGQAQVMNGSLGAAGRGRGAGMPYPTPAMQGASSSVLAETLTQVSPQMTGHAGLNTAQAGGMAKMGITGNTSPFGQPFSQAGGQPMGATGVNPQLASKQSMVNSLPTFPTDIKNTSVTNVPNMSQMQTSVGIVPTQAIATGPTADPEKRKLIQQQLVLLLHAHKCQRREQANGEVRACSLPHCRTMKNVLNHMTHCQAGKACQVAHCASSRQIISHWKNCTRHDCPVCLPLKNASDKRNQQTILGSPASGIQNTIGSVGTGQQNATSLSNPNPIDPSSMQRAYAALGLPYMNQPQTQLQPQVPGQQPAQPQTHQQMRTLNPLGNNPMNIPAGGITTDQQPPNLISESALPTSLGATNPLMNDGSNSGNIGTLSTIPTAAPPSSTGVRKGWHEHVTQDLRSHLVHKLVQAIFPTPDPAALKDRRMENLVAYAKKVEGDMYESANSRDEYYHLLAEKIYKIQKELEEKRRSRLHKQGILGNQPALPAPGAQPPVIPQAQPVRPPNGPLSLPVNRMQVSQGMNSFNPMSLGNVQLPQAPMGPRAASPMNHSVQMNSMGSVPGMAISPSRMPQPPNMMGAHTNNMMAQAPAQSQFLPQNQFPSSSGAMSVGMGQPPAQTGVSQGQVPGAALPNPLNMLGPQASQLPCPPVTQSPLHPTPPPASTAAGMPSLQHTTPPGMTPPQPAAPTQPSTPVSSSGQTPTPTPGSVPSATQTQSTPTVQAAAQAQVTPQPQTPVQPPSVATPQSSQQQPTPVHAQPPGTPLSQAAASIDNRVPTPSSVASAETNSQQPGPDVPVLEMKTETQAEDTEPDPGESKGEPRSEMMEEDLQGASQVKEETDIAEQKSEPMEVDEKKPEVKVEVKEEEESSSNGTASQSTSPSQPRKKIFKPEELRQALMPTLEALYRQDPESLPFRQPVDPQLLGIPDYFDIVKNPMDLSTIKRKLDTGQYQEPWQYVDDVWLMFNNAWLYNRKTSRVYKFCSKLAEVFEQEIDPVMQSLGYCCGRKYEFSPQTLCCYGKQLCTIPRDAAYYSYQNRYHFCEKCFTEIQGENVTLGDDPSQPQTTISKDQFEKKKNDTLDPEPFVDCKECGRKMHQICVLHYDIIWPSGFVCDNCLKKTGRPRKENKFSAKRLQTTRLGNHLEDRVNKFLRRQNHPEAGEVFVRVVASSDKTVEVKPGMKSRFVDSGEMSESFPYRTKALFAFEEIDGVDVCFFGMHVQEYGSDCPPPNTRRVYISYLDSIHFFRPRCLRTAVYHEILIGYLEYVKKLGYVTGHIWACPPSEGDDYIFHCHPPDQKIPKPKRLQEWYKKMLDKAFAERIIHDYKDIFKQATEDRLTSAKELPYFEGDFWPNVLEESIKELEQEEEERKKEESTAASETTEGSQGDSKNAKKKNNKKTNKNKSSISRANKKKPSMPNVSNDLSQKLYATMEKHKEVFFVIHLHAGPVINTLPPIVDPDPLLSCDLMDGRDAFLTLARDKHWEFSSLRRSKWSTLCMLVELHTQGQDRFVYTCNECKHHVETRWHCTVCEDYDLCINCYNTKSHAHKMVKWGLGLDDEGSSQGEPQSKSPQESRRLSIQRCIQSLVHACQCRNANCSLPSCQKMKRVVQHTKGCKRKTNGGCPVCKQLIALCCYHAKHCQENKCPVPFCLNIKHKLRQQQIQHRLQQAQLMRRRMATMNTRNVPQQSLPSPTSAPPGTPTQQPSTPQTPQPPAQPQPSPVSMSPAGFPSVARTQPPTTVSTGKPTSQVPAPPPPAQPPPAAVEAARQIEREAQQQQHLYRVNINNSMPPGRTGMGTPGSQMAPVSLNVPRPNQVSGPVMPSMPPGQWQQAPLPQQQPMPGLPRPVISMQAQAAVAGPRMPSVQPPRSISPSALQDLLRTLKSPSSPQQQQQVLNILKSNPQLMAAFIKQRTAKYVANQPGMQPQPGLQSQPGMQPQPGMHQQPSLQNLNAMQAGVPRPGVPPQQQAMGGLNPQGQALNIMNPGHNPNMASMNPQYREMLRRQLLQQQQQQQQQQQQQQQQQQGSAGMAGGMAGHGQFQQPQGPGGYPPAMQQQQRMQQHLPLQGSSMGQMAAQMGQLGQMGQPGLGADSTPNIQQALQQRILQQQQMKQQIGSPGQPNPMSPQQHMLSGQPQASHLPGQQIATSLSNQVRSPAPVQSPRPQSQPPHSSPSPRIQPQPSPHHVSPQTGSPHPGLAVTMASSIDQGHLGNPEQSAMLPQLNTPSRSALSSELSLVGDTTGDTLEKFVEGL

**Q.** What does the source list for `C[C@@H]1CC(=O)Nc2cc(C3CCN(CC4CCN(c5ccc(C(=O)N[C@H]6CC[C@H](Oc7ccc(C#N)c(Cl)c7)CC6)nn5)CC4)CC3)cc(-c3ccc4c(c3)c(C3CC3)nn4C)c2N1` [Compound 88, N-[4-(3-chloro-4-cyano-phenoxy)cyclohexyl]-6-[4-[[4-[(4R)-6-(3-cyclopropyl-1-methyl-indazol-5-yl)-4-methyl-2-oxo-1,3,4,5-tetrahydro-1,5-benzodiazepin-8-yl]-1-piperidyl]methyl]-1-piperidyl]pyridazine-3-carboxamide]?
**A.** IC50 (VCaP cells): 0.1 to 1 nM; EC50 (AR / CBP ternary complex; [1]): 1 to 10 nM

**Q.** Which results are given for `C[C@@H]1CC(=O)Nc2cc(C3CCN(CC4CCN(c5ccc(C(=O)N[C@H]6CC[C@H](Oc7ccc(C#N)c(Cl)c7)CC6)nn5)CC4)CC3)cc(-c3ccc4c(cnn4C)c3)c2N1` [Compound 89]?
**A.** IC50 (VCaP cells): ≤ 0.1 nM; EC50 (AR / CBP ternary complex; [1]): < 1 nM

**Q.** How did the IC50 (VCaP cells) turn out when `CC(=O)N1CCc2c(c(N3CCCc4cc(-c5cnn(C)c5)c(C(F)F)cc43)nn2C2CCN(CCC#Cc3ccc(C(=O)N[C@H]4CC[C@H](Oc5ccc(C#N)c(Cl)c5)CC4)nn3)CC2)C1` [Compound 94, 6-[4-[4-[5-acetyl-3-[7-(difluoromethyl)-6-(1-methylpyrazol-4-yl)-3,4-dihydro-2H-quinolin-1-yl]-6,7-dihydro-4H-pyrazolo[4,3-c]pyridin-1-yl]-1-piperidyl]but-1-ynyl]-N-[4-(3-chloro-4-cyano-phenoxy)cyclohexyl]pyridazine-3-carboxamide] was run?
**A.** 0.1 to 1 nM

**Q.** And the EC50 (AR / CBP ternary complex; [1])?
**A.** 1 to 10 nM

**Q.** `CC(=O)N1CCc2c(c(N3CCCc4cc(-c5cnn(C)c5)c(C(F)F)cc43)nn2C2CCN(CC3(C)CCN(c4ccc(C(=O)N[C@H]5CC[C@H](Oc6ccc(C#N)c(Cl)c6)CC5)nn4)CC3)CC2)C1` [Compound 100, 6-[4-[[4-[5-acetyl-3-[7-(difluoromethyl)-6-(1-methylpyrazol-4-yl)-3,4-dihydro-2H-quinolin-1-yl]-6,7-dihydro-4H-pyrazolo[4,3-c]pyridin-1-yl]-1-piperidyl]methyl]-4-methyl-1-piperidyl]-N-[4-(3-chloro-4-cyano-phenoxy)cyclohexyl]pyridazine-3-carboxamide] was tested. Which IC50 (VCaP cells) did it give?
**A.** 0.1 to 1 nM

**Q.** What about the EC50 (AR / CBP ternary complex; [1]) of the same molecule?
**A.** < 1 nM

**Q.** What does the source list for `CC(=O)N1CCc2c(c(N3CCCc4cc(C#N)ccc43)nn2C2CCN(CC3(C)CCN(c4ccc(C(=O)N[C@H]5CC[C@H](Oc6ccc(C#N)c(Cl)c6)CC5)nn4)CC3)CC2)C1` [Compound 102, 6-[4-[[4-[5-acetyl-3-(6-cyano-3,4-dihydro-2H-quinolin-1-yl)-6,7-dihydro-4H-pyrazolo[4,3-c]pyridin-1-yl]-1-piperidyl]methyl]-4-methyl-1-piperidyl]-N-[4-(3-chloro-4-cyano-phenoxy)cyclohexyl]pyridazine-3-carboxamide]?
**A.** IC50 (VCaP cells): 0.1 to 1 nM; EC50 (AR / CBP ternary complex; [1]): < 1 nM

**Q.** Which IC50 (VCaP cells) does the source give for `CC(=O)N1CCc2c(c(N3CCCc4cc(C#N)ccc43)nn2C2CCN(C[C@H]3CCN(c4ccc(C(=O)N[C@H]5CC[C@H](Oc6ccc(C#N)c(Cl)c6)CC5)nn4)C[C@H]3C)CC2)C1` [Compound 103, 6-[4-[[4-[5-acetyl-3-(6-cyano-3,4-dihydro-2H-quinolin-1-yl)-6,7-dihydro-4H-pyrazolo[4,3-c]pyridin-1-yl]-1-piperidyl]methyl]-3-methyl-1-piperidyl]-N-[4-(3-chloro-4-cyano-phenoxy)cyclohexyl] pyridazine-3-carboxamide] here?
**A.** 0.1 to 1 nM

**Q.** What about the EC50 (AR / CBP ternary complex; [1]) of the same molecule?
**A.** < 1 nM

**Q.** For `CC(=O)N1CCc2c(c(N3CCCc4cc(-c5cnn(C)c5)c(C(F)F)cc43)nn2C2CCN(C[C@H]3CCN(c4ccc(C(=O)N[C@H]5CC[C@H](Oc6ccc(C#N)c(Cl)c6)CC5)nn4)C[C@@H]3C)CC2)C1` [Compound 104, 6-[4-[[4-[5-acetyl-3-[7-(difluoromethyl)-6-(1-methylpyrazol-4-yl)-3,4-dihydro-2H-quinolin-1-yl]-6,7-dihydro-4H-pyrazolo[4,3-c]pyridin-1-yl]-1-piperidyl]methyl]-3-methyl-1-piperidyl]-N-[4-(3-chloro-4-cyano-phenoxy)cyclohexyl]pyridazine-3-carboxamide], which IC50 (VCaP cells) is on record?
**A.** ≤ 0.1 nM

**Q.** What about the EC50 (AR / CBP ternary complex; [1]) of the same molecule?
**A.** < 1 nM

**Q.** Which IC50 (VCaP cells) does the source give for `CC(=O)N1CCc2c(c(N3CCCc4cc(C)ncc43)nn2C2CCN(CC3CCN(c4ccc(C(=O)N[C@H]5CC[C@H](Oc6ccc(C#N)c(Cl)c6)CC5)nn4)CC3)CC2)C1` [Compound 107, 6-[4-[[4-[5-acetyl-3-(6-methyl-3,4-dihydro-2H-1,7-naphthyridin-1-yl)-6,7-dihydro-4H-pyrazolo[4,3-c]pyridin-1-yl]-1-piperidyl]methyl]-1-piperidyl]-N-[4-(3-chloro-4-cyano-phenoxy)cyclohexyl]pyridazine-3-carboxamide] here?
**A.** ≤ 0.1 nM

**Q.** What about the EC50 (AR / CBP ternary complex; [1]) of the same molecule?
**A.** < 1 nM

**Q.** Which results are given for `CC(=O)N1CCc2c(c(N3CCCc4cc(C5CC5)ncc43)nn2C2CCN(CC3CCN(c4ccc(C(=O)N[C@H]5CC[C@H](Oc6ccc(C#N)c(Cl)c6)CC5)nn4)CC3)CC2)C1` [Compound 108, 6-[4-[[4-[5-acetyl-3-(6-cyclopropyl-3,4-dihydro-2H-1,7-naphthyridin-1-yl)-6,7-dihydro-4H-pyrazolo[4,3-c]pyridin-1-yl]-1-piperidyl]methyl]-1-piperidyl]-N-[4-(3-chloro-4-cyano-phenoxy)cyclohexyl]pyridazine-3-carboxamide]?
**A.** IC50 (VCaP cells): 0.1 to 1 nM; EC50 (AR / CBP ternary complex; [1]): 1 to 10 nM

**Q.** Which IC50 (VCaP cells) does the source give for `COc1cc2c(cn1)N(c1nn(C3CCN(CC4CCN(c5ccc(C(=O)N[C@H]6CC[C@H](Oc7ccc(C#N)c(Cl)c7)CC6)nn5)CC4)CC3)c3c1CN(C(C)=O)CC3)CCC2` [Compound 109, 6-[4-[[4-[5-acetyl-3-(6-methoxy-3,4-dihydro-2H-1,7-naphthyridin-1-yl)-6,7-dihydro-4H-pyrazolo[4,3-c]pyridin-1-yl]-1-piperidyl]methyl]-1-piperidyl]-N-[4-(3-chloro-4-cyano-phenoxy)cyclohexyl]pyridazine-3-carboxamide] here?
**A.** 0.1 to 1 nM

**Q.** And the EC50 (AR / CBP ternary complex; [1])?
**A.** 10 to 100 nM

**Q.** For `CC(=O)N1CCc2c(c(N3CCCc4cc(-c5cnn(C)c5)c(C(F)F)cc43)nn2C2CCC3(CC2)CCN(c2ccc(C(=O)N[C@H]4CC[C@H](Oc5ccc(C#N)c(Cl)c5)CC4)nn2)CC3)C1` [Compound 112, 6-[9-[5-acetyl-3-[7-(difluorodimethyl)-6-(1-methylpyrazol-4-yl)-3,4-dihydro-2H-quinolin-1-yl]-6,7-dihydro-4H-pyrazolo[4,3-c]pyridin-1-yl]-3-azaspiro[5.5]undecan-3-yl]-N-[4-(3-chloro-4-cyano-phenoxy)cyclohexyl]pyridazine-3-carboxamide], which IC50 (VCaP cells) is on record?
**A.** 0.1 to 1 nM

**Q.** What about the EC50 (AR / CBP ternary complex; [1]) of the same molecule?
**A.** < 1 nM

**Q.** How did the IC50 (VCaP cells) turn out when `CC(=O)N1CCc2c(c(N3CCCc4cc(C#N)ccc43)nn2C2CCC3(CC2)CCN(c2ccc(C(=O)N[C@H]4CC[C@H](Oc5ccc(C#N)c(Cl)c5)CC4)nn2)CC3)C1` [Compound 113, 6-[9-[5-acetyl-3-(6-cyano-3,4-dihydro-2H-quinolin-1-yl)-6,7-dihydro-4H-pyrazolo[4,3-c]pyridin-1-yl]-3-azaspiro[5.5]undecan-3-yl]-N-[4-(3-chloro-4-cyano-phenoxy)cyclohexyl]pyridazine-3-carboxamide] was run?
**A.** 0.1 to 1 nM

**Q.** And the EC50 (AR / CBP ternary complex; [1])?
**A.** < 1 nM

**Q.** With `CC(=O)N1CCc2c(c(N3CCCc4cc(-c5cnn(C)c5)c(C(F)F)cc43)nn2C2CCN(CC3C4CC3CN(c3ccc(C(=O)N[C@H]5CC[C@H](Oc6ccc(C#N)c(Cl)c6)CC5)nn3)C4)CC2)C1` (stereo partly shown) [Compound 118, 6-[6-[[4-[5-acetyl-3-[7-(difluoromethyl)-6-(1-methylpyrazol-4-yl)-3,4-dihydro-2H-quinolin-1-yl]-6,7-dihydro-4H-pyrazolo[4,3-c]pyridin-1-yl]-1-piperidyl]methyl]-3-azabicyclo [3.1.1]heptan-3-yl]-N-[4-(3-chloro-4-cyano-phenoxy)cyclohexyl] pyridazine-3-carboxamide] as the molecule, how does the IC50 (VCaP cells) read?
**A.** 0.1 to 1 nM

**Q.** And the EC50 (AR / CBP ternary complex; read-out: Average Ternary Complex, treated 1.5 hours, rabbit CBP or p300 antibody detection)?
**A.** < 1 nM

**Q.** How did the IC50 (VCaP cells) turn out when `CC(=O)N1CCc2c(c(-c3cccc4ccncc34)nn2C2CCN(CC3CCN(c4ccc(C(=O)N[C@H]5CC[C@H](Oc6ccc(C#N)c(Cl)c6)CC5)nn4)CC3)CC2)C1` [Compound 120, 6-[4-[[4-[5-acetyl-3-(8-isoquinolyl)-6,7-dihydro-4H-pyrazolo[4,3-c]pyridin-1-yl]-1-piperidyl]methyl]-1-piperidyl]-N-[4-(3-chloro-4-cyano-phenoxy)cyclohexyl]pyridazine-3-carboxamide] was run?
**A.** 0.1 to 1 nM

**Q.** And the EC50 (AR / CBP ternary complex; [1])?
**A.** < 1 nM

**Q.** With `CC(=O)N1CCc2c(c(-c3cccc4cc(C#N)ncc34)nn2C2CCN(CC3CCN(c4ccc(C(=O)N[C@H]5CC[C@H](Oc6ccc(C#N)c(Cl)c6)CC5)nn4)CC3)CC2)C1` [Compound 121, 6-[4-[[4-[5-acetyl-3-(3-cyano-8-isoquinolyl)-6,7-dihydro-4H-pyrazolo[4,3-c]pyridin-1-yl]-1-piperidyl]methyl]-1-piperidyl]-N-[4-(3-chloro-4-cyano-phenoxy)cyclohexyl]pyridazine-3-carboxamide] as the molecule, how does the IC50 (VCaP cells) read?
**A.** 0.1 to 1 nM

**Q.** And the EC50 (AR / CBP ternary complex; [1])?
**A.** < 1 nM

**Q.** `CC(=O)N1CCc2c(c(-c3cccc4cc(C)ncc34)nn2C2CCN(CC3CCN(c4ccc(C(=O)N[C@H]5CC[C@H](Oc6ccc(C#N)c(Cl)c6)CC5)nn4)CC3)CC2)C1` [Compound 122, -[4-[[4-[5-acetyl-3-(3-methyl-8-isoquinolyl)-6,7-dihydro-4H-pyrazolo[4,3-c]pyridin-1-yl]-1-piperidyl]methyl]-1-piperidyl]-N-[4-(3-chloro-4-cyano-phenoxy)cyclohexyl]pyridazine-3-carboxamide] was tested. Which IC50 (VCaP cells) did it give?
**A.** 0.1 to 1 nM

**Q.** And the EC50 (AR / CBP ternary complex; [1])?
**A.** < 1 nM

**Q.** What does the source list for `CC(=O)N1CCc2c(c(-c3cccc4cc(C5CC5)ncc34)nn2C2CCN(CC3CCN(c4ccc(C(=O)N[C@H]5CC[C@H](Oc6ccc(C#N)c(Cl)c6)CC5)nn4)CC3)CC2)C1` [Compound 123, 6-[4-[[4-[5-acetyl-3-(3-cyclopropyl-8-isoquinolyl)-6,7-dihydro-4H-pyrazolo[4,3-c]pyridin-1-yl]-1-piperidyl]methyl]-1-piperidyl]-N-[4-(3-chloro-4-cyano-phenoxy)cyclohexyl]pyridazine-3-carboxamide]?
**A.** IC50 (VCaP cells): 0.1 to 1 nM; EC50 (AR / CBP ternary complex; [1]): < 1 nM
